What was measured:
[1] = target: T1, human adenosine A1 receptor (Homo sapiens, UniProt P30542); experiment: Inhibition binding assay, human adenosine A1 receptor membranes, [3H]DPCPX; conditions: 1 nM [3H]DPCPX, 25° C., 1 h; IC50 converted to Ki with Cheng-Prusoff; read-out: A1 pKi (converted)
T1 construct: expressed in transfected cells; host or cells: HEK293 cells infected with BacMam (the same paragraph also labels the preparation CHO-hA1)
T1 sequence (P30542 1-326): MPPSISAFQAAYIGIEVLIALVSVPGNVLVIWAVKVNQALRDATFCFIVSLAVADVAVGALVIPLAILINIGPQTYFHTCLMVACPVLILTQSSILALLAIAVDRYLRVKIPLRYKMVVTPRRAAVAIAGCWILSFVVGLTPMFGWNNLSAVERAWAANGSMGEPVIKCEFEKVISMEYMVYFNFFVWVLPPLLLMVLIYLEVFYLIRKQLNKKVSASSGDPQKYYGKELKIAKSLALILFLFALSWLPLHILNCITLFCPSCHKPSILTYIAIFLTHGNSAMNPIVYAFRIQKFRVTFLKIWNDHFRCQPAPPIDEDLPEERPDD
In short: (§1)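 Membranes from BacMam-infected HEK293 cells (0.2 μg A2A, 1.4 μg A1) incubated 1 h at 25° C with test compound and 1 nM [3H]ZM241385 (A2A; 50 mM Tris-HCl pH 7.4) or [3H]DPCPX (A1; plus 100 mM NaCl, 10 mM MgCl2). Nonspecific: 1 μM CGS15943 or DPCPX. Filtration, scintillation; IC50 converted to Ki via Cheng-Prusoff.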

[2] = target: T2, human adenosine A2A receptor (Homo sapiens, UniProt P29274); experiment: Inhibition binding assay, human adenosine A2A receptor membranes, [3H]ZM241385; conditions: 1 nM [3H]ZM241385, HEK293-hA2A membranes, 25° C., 1 h; IC50 converted to Ki with Cheng-Prusoff; read-out: A2A pKi (converted)
T2 construct: expressed in transfected cells; host or cells: HEK293 cells infected with BacMam
In short: as §1

T2 sequence (P29274 whole entry): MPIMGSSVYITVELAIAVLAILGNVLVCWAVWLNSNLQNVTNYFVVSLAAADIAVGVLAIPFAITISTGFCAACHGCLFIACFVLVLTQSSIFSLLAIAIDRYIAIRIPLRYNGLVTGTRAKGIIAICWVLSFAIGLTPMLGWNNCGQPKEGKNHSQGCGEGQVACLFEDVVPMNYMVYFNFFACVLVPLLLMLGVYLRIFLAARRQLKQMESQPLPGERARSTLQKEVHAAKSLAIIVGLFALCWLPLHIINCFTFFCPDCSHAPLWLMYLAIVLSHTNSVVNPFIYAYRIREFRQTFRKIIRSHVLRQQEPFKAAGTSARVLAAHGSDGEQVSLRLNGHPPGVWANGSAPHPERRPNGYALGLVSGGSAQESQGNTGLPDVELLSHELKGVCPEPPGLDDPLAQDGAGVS

Compound | Ki [1] [nM] | Ki [2] [nM]
Nc1nc(-c2ccccc2)c(-c2cc(Cl)nc(CO)c2)c2nn(CCC(F)(F)F)c(=O)n12 [Example 2-45, 5-amino-8-[2-chloro-6-(hydroxymethyl)-4-pyridyl]-7-phenyl-2-(3,3,3-trifluoropropyl)-[1,2,4]triazolo[4,3-c]pyrimidin-3-one] | 316 | 0.251
Cc1cc(-c2c(-c3ccccc3)nc(N)n3c(=O)n(CCc4ccc(C(=O)O)cc4)nc23)cc(C)n1 [Example 1-85, 4-[2-[5-amino-8-(2,6-dimethyl-4-pyridyl)-3-oxo-7-phenyl-[1,2,4]triazolo[4,3-c]pyrimidin-2-yl]ethyl]benzoic acid] | > 3980 | 200
Cc1cc(-c2c(-c3ccccc3)nc(N)n3c(=O)n(C(C)c4cccnc4)nc23)cc(C)n1 (centres unmarked) [Example 1-27, 5-amino-8-(2,6-dimethyl-4-pyridyl)-7-phenyl-2-[1-(3-pyridyl)ethyl]-[1,2,4]triazolo[4,3-c]pyrimidin-3-one] | 251 | 10
Cc1cc(-c2c(-c3ccccc3)nc(N)n3c(=O)n(C[C@H]4CN(C(=O)OC(C)(C)C)CCN4C)nc23)cc(C)n1 [Example 2-84, tert-butyl (R)-3-((5-amino-8-(2,6-dimethylpyridin-4-yl)-3-oxo-7-phenyl-[1,2,4]triazolo[4,3-c]pyrimidin-2(3H)-yl)methyl)-4-methylpiperazine-1-carboxylate] | 316 | 6.31
Cc1cc(-c2c(-c3ccc(F)cc3)nc(N)n3c(=O)n(CCC(F)(F)F)nc23)cc(Cl)n1 [Example 2-50, 5-amino-8-(2-chloro-6-methyl-4-pyridyl)-7-(4-fluorophenyl)-2-(3,3,3-trifluoropropyl)-[1,2,4]triazolo[4,3-c]pyrimidin-3-one] | 79.4 | 0.794
Cc1cc(-c2c(-c3ccccc3)nc(N)n3c(=O)n(C)nc23)cc(C)n1 [Example 2-2, 5-amino-8-(2,6-dimethyl-4-pyridyl)-2-methyl-7-phenyl-[1,2,4]triazolo[4,3-c]pyrimidin-3-one] | 200 | 5.01
Cc1cc(-c2c(-c3ccccc3)nc(N)n3c(=O)n(CC4CCCOC4)nc23)cc(CO)n1 (single isomer, unassigned) [Example 2-92-iso-1, 5-amino-8-[2-(hydroxymethyl)-6-methyl-4-pyridyl]-7-phenyl-2-(tetrahydropyran-3-ylmethyl)-[1,2,4]triazolo[4,3-c]pyrimidin-3-one] | 251 | 2.51
Cc1cc(-c2c(-c3ccccc3)nc(N)n3c(=O)n(CC4CCCS(=O)(=O)C4)nc23)cc(C)n1 (single isomer, unassigned) [Example 2-89-iso-1, 5-amino-8-(2,6-dimethyl-4-pyridyl)-2-[(1,1-dioxothian-3-yl)methyl]-7-phenyl-[1,2,4]triazolo[4,3-c]pyrimidin-3-one] | 398 | 10
Cc1cc(-c2c(-c3ccccc3)nc(N)n3c(=O)n(C[C@H]4COCCN4C)nc23)cc(C)n1 [Example 2-77, 5-amino-8-(2,6-dimethyl-4-pyridyl)-2-[[(3S)-4-methylmorpholin-3-yl]methyl]-7-phenyl-[1,2,4]triazolo[4,3-c]pyrimidin-3-one] | 398 | 3.16
CCC(c1ccc(F)cn1)n1nc2c(-c3cc(C)nc(C)c3)c(-c3ccccc3)nc(N)n2c1=O (racemic) [Example 1-38, 5-amino-8-(2,6-dimethyl-4-pyridyl)-2-[1-(5-fluoro-2-pyridyl)propyl]-7-phenyl-[1,2,4]triazolo[4,3-c]pyrimidin-3-one] | 1000 | 100
Cc1cc(-c2c(-c3ccccc3)nc(N)n3c(=O)n([C@H](C)c4ccncc4)nc23)cc(C)n1 [Example 1-26, (R)-5-amino-8-(2,6-dimethyl-4-pyridyl)-7-phenyl-2-[1-(4-pyridyl)ethyl]-[1,2,4]triazolo[4,3-c]pyrimidin-3-one] | 794 | 15.8
CCC(c1ccc(F)cn1)n1nc2c(-c3cc(C)nc(C)c3)c(-c3ccccc3)nc(N)n2c1=O (single isomer, unassigned) [1-38 iso-1, 5-amino-8-(2,6-dimethyl-4-pyridyl)-2-[1-(5-fluoro-2-pyridyl)propyl]-7-phenyl-[1,2,4]triazolo[4,3-c]pyrimidin-3-one] | 501 | 63.1
COc1cnc(Cn2nc3c(-c4cc(C)nc(CO)c4)c(-c4ccccc4)nc(N)n3c2=O)c(F)c1 [Example 1-47, 5-amino-2-[(3-fluoro-5-methoxy-2-pyridyl)methyl]-8-[2-(hydroxymethyl)-6-methyl-4-pyridyl]-7-phenyl-[1,2,4]triazolo[4,3-c]pyrimidin-3-one] | 501 | 7.94
Cc1cc(-c2c(-c3ccccc3)nc(N)n3c(=O)n(CCc4ccccc4)nc23)cc(Cl)n1 [Example 1-89, 5-amino-8-(2-chloro-6-methyl-4-pyridyl)-7-phenyl-2-(2-phenylethyl)-[1,2,4]triazolo[4,3-c]pyrimidin-3-one] | 126 | 5.01
Cc1cc(-c2c(-c3ccccc3)nc(N)n3c(=O)n(C[C@@H]4CN(C)CCO4)nc23)cc(C)n1 [Example 2-72, 5-amino-8-(2,6-dimethyl-4-pyridyl)-2-[[(2S)-4-methylmorpholin-2-yl]methyl]-7-phenyl-[1,2,4]triazolo[4,3-c]pyrimidin-3-one] | 631 | 15.8
Cc1cc(-c2c(-c3ccccc3)nc(N)n3c(=O)n(C(CN)Cc4ccc(F)cc4F)nc23)cc(C)n1 (centres unmarked) [Example 1-100, 5-amino-2-[1-(aminomethyl)-2-(2,4-difluorophenyl)ethyl]-8-(2,6-dimethyl-4-pyridyl)-7-phenyl-[1,2,4]triazolo[4,3-c]pyrimidin-3-one] | 316 | 158
Cc1cc(-c2c(-c3ccccc3)nc(N)n3c(=O)n(CC4CCN(C)CC4)nc23)cc(C)n1 [Example 2-78, 5-amino-8-(2,6-dimethyl-4-pyridyl)-2-[(1-methyl-4-piperidyl)methyl]-7-phenyl-[1,2,4]triazolo[4,3-c]pyrimidin-3-one] | > 3160 | 200
Cc1cc(-c2c(-c3ccccc3)nc(N)n3c(=O)n(C4CCCN(C)C4)nc23)cc(C)n1 (centres unmarked) [Example 2-70, 5-amino-8-(2,6-dimethyl-4-pyridyl)-2-(1-methyl-3-piperidyl)-7-phenyl-[1,2,4]triazolo[4,3-c]pyrimidin-3-one] | 501 | 3.98
Cc1cc(-c2c(-c3ccccc3)nc(N)n3c(=O)n(C[C@@H]4COCCN4)nc23)cc(C)n1 [Example 2-79, (R)-5-amino-8-(2,6-dimethylpyridin-4-yl)-2-(morpholin-3-ylmethyl)-7-phenyl-[1,2,4]triazolo[4,3-c]pyrimidin-3(2H)-one] | 794 | 15.8
Cc1cc(-c2c(-c3ccncc3)nc(N)n3c(=O)n(CCC(F)(F)F)nc23)cc(C)n1 [Example 2-38, 5-amino-8-(2,6-dimethyl-4-pyridyl)-7-(4-pyridyl)-2-(3,3,3-trifluoropropyl)-[1,2,4]triazolo[4,3-c]pyrimidin-3-one] | > 3980 | 39.8
Cc1cc(-c2c(-c3ccccc3)nc(N)n3c(=O)n(Cc4ccccc4C4CCNCC4)nc23)cc(C)n1 [Example 1-30, 5-amino-8-(2,6-dimethyl-4-pyridyl)-7-phenyl-2-[[2-(4-piperidyl)phenyl]methyl]-[1,2,4]triazolo[4,3-c]pyrimidin-3-one] | 39.8 | 0.501
Cc1cc(-c2c(-c3ccccc3)nc(N)n3c(=O)n(Cc4ncc(F)cc4Cl)nc23)cc(C)n1 [Example 1-39, 5-amino-2-[(3-chloro-5-fluoro-2-pyridyl)methyl]-8-(2,6-dimethyl-4-pyridyl)-7-phenyl-[1,2,4]triazolo[4,3-c]pyrimidin-3-one] | 63.1 | 0.631
Cc1cc(-c2c(-c3ccccc3)nc(N)n3c(=O)n(CCC(F)(F)F)nc23)cc(Cl)n1 [Example 2-48, 5-amino-8-(2-chloro-6-methyl-4-pyridyl)-7-phenyl-2-(3,3,3-trifluoropropyl)-[1,2,4]triazolo[4,3-c]pyrimidin-3-one] | 6.31 | 0.794
[2H]c1c([2H])c([2H])c(-c2nc(N)n3c(=O)n(CCC(F)(F)F)nc3c2-c2cc(C)nc(CO)c2)c([2H])c1[2H] [Example 2-61, 5-amino-8-[2-(hydroxymethyl)-6-methyl-4-pyridyl]-7-(2,3,4,5,6-pentadeuteriophenyl)-2-(3,3,3-trifluoropropyl)-[1,2,4]triazolo[4,3-c]pyrimidin-3-one] | 631 | 1.26
Cc1cc(-c2c(-c3ccccc3)nc(N)n3c(=O)n(CC4CS(=O)(=O)C4)nc23)cc(C)n1 [Example 2-90, 5-amino-8-(2,6-dimethyl-4-pyridyl)-2-[(1,1-dioxothietan-3-yl)methyl]-7-phenyl-[1,2,4]triazolo[4,3-c]pyrimidin-3-one] | 794 | 50.1

Reference: US12528815B2, “5-amino-8-(4-pyridyl)-[1,2,4]triazolo[4,3-c]pyrimidin-3-one compounds for use against cancer” (Nxera Pharma UK Limited, priority 2020, dated 2026)
